pIC50: −log10 of the molar value. Where a name gives a salt, the structure may show the parent alone.
These molecules were tested on HIV-1 (HIVIIIB) replication in MT2 cell line (assay: HIV-1 replication in MT2 cell line with and without 30% human serum (viral RT activity in supernatant)). Details: Human immunodeficiency virus 1, MT2 cells, with 30% human serum, average IC50 if tested more than once, read-out: MT2 (HIVIIIB) with HS 30% IC50 range.
Format: cell-based
How it was run: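 Read-out is supernatant reverse transcriptase activity on day 5 post-infection, giving IC50 and IC90. Compounds were titrated in complete medium ± 30% human serum, re-dosed after 3 days, on MT2 cells exposed for 3 h to HIVIIIB at MOI 0.5 then washed.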

CC(C)C1=C2[C@H]3CC[C@@H]4[C@@]5(C)CC[C@H](OC(=O)CC(C)(C)C(=O)O)C(C)(C)[C@@H]5CC[C@@]4(C)[C@]3(C)CC[C@@]2(NC(=O)c2cccc(F)c2)CC1=O [19-12, 3β-O-(3′,3′-Dimethylsuccinyl)-17β-(3-fluorobenzamido)-21-oxolup-18-ene] and CC(C)C1=C2[C@H]3CC[C@@H]4[C@@]5(C)CC[C@H](OC(=O)CC(C)(C)C(=O)O)C(C)(C)[C@@H]5CC[C@@]4(C)[C@]3(C)CC[C@@]2(NC(=O)c2ccccn2)CC1=O [19-15, 3β-O-(3′,3′-Dimethylsuccinyl)-17β-(Pyridin-2-yl)amido-21-oxolup-18-ene hydrochloride] cannot be ordered by pIC50: over 6.70 for the first, over 6.70 for the second.

CC(C)C1=C2C3CCC4[C@@]5(C)CC[C@H](OC(=O)CC(C)(C)C(=O)O)C(C)(C)C5CC[C@@]4(C)[C@]3(C)CC[C@@]2(NC(=O)c2cn[nH]c2)CC1=O (stereo partly drawn) [19-82, 3β-O-(3′,3′-Dimethylsuccinyl)-17β-(1H-pyrazole-4-amido)-21-oxolup-18-ene] and CC(C)C1=C2C3CCC4[C@@]5(C)CC[C@H](OC(=O)CC(C)(C)C(=O)O)C(C)(C)C5CC[C@@]4(C)[C@]3(C)CC[C@@]2(NC(=O)c2cncs2)CC1=O (stereo partly drawn) [19-28, 3β-O-(3′,3′-Dimethylsuccinyl)-17β-(1,3-thiazole-5-amido)-21-oxolup-18-ene] cannot be ordered by pIC50: over 6.70 for the first, over 6.70 for the second.

First: CC(C)C1=C2C3CCC4[C@@]5(C)CC[C@H](OC(=O)CC(C)(C)C(=O)O)C(C)(C)C5CC[C@@]4(C)[C@]3(C)CC[C@@]2(NC(=O)NC(C)(C)C(F)(F)F)CC1=O (stereo partly drawn) [17-56, 3β-O-(3′,3′-Dimethylsuccinyl)-17β-[N′-(2,2,2-trifluoro-1,1-dimethyl-ethyl)ureido]-21-oxolup-18-ene]
Second: CC(C)C1=C2C3CCC4[C@@]5(C)CC[C@H](OC(=O)CC(C)(C)C(=O)O)C(C)(C)C5CC[C@@]4(C)[C@]3(C)CC[C@@]2(NC(=O)NCC2CC2)CC1=O (stereo partly drawn) [17-21, 3β-O-(3′,3′-Dimethylsuccinyl)-17β-(N′-cyclopropylmethyl-ureido)-21-oxolup-18-ene]
The pIC50 of the first is higher: over 6.70 for the first, 6.00 to 6.70 for the second.

CC(C)C1=C2C3CCC4[C@@]5(C)CC[C@H](OC(=O)CC(C)(C)C(=O)O)C(C)(C)C5CC[C@@]4(C)[C@]3(C)CC[C@@]2(NC(=O)OCCN2CCCC2=O)CC1=O (stereo partly drawn) [20-24, 3β-O-(3′,3′-Dimethylsuccinyl)-17β-(2-(2-oxo-pyrrolidin)-1-ethoxycarbonylamino)-21-oxolup-18-ene] and CC(C)C1=C2C3CCC4[C@@]5(C)CC[C@H](OC(=O)CC(C)(C)C(=O)O)C(C)(C)C5CC[C@@]4(C)[C@]3(C)CC[C@@]2(NC(=O)OCC2CC2)CC1=O (stereo partly drawn) [20-3, 3β-O-(3′,3′-Dimethylsuccinyl)-17β-cyclopropylmethoxycarbonylamino-21-oxolup-18-ene] cannot be ordered by pIC50: over 6.70 for the first, over 6.70 for the second.

CC(C)C1=C2[C@H]3CC[C@@H]4[C@@]5(C)CC[C@H](OC(=O)CC(C)(C)C(=O)O)C(C)(C)[C@@H]5CC[C@@]4(C)[C@]3(C)CC[C@@]2(N)CC1=O [15-1, 3β-O-(3′,3′-Dimethylsuccinyl)-17β-amino-21-oxolup-18-ene hydrochloride] and CC(C)C1=C2C3CCC4[C@@]5(C)CC[C@H](OC(=O)CC(C)(C)C(=O)O)C(C)(C)C5CC[C@@]4(C)[C@]3(C)CC[C@@]2(NC(=O)C(=O)N(C)C)CC1=O (stereo partly drawn) [19-74, 3β-O-(3′,3′-Dimethylsuccinyl)-17β-(N′,N′-dimethyl-oxalamido)-21-oxolup-18-ene] cannot be ordered by pIC50: over 6.70 for the first, over 6.70 for the second.

CC(C)C1=C2[C@H]3CC[C@@H]4[C@@]5(C)CC[C@H](OC(=O)CC(C)(C)C(=O)O)C(C)(C)[C@@H]5CC[C@@]4(C)[C@]3(C)CC[C@@]2(NC(=O)CN2CCCC2)CC1=O [19-38, 3β-O-(3′,3′-Dimethylsuccinyl)-17β-(2-pyrrolidin-1-yl-acetamido)-21-oxolup-18-ene] and CC(C)C1=C2[C@H]3CC[C@@H]4[C@@]5(C)CC[C@H](OC(=O)CC(C)(C)C(=O)O)C(C)(C)[C@@H]5CC[C@@]4(C)[C@]3(C)CC[C@@]2(NC(=O)[C@H]2CCCCN2C)CC1=O [19-66, 3β-O-(3′,3′-Dimethylsuccinyl)-17β-((R)-1-methylpiperidine-2-amido)-21-oxolup-18-ene] cannot be ordered by pIC50: over 6.70 for the first, over 6.70 for the second.

CC(C)C1=C2C3CCC4[C@@]5(C)CC[C@H](OC(=O)CC(C)(C)C(=O)O)C(C)(C)C5CC[C@@]4(C)[C@]3(C)CC[C@@]2(NC(=O)OC2CCCC2)CC1=O (stereo partly drawn) [20-4, 3β-O-(3′,3′-Dimethylsuccinyl)-17β-cyclopentyloxycarbonylamino-21-oxolup-18-ene] and CC(C)C1=C2[C@H]3CC[C@@H]4[C@@]5(C)CC[C@H](OC(=O)CC(C)(C)C(=O)O)C(C)(C)[C@@H]5CC[C@@]4(C)[C@]3(C)CC[C@@]2(NC(=O)C2CCN(C)CC2)CC1=O [19-36, 3β-O-(3′,3′-Dimethylsuccinyl)-17β-(1-methylpiperidine-4-amido)-21-oxolup-18-ene] cannot be ordered by pIC50: over 6.70 for the first, over 6.70 for the second.

CC(C)C1=C2C3CCC4[C@@]5(C)CC[C@H](OC(=O)CC(C)(C)C(=O)O)C(C)(C)C5CC[C@@]4(C)[C@]3(C)CC[C@@]2(NC(=O)OCc2ccccc2)CC1=O (stereo partly drawn) [20-8, 3β-O-(3′,3′-Dimethylsuccinyl)-17β-benzyloxycarbonylamino-21-oxolup-18-ene] and CC(C)C1=C2C3CCC4[C@@]5(C)CC[C@H](OC(=O)CC(C)(C)C(=O)O)C(C)(C)C5CC[C@@]4(C)[C@]3(C)CC[C@@]2(NC(=O)NCc2cccs2)CC1=O (stereo partly drawn) [17-64, 3β-O-(3′,3′-Dimethylsuccinyl)-17β-[N′-(thiophen-2-ylmethyl)-ureido]-21-oxolup-18-ene] cannot be ordered by pIC50: over 6.70 for the first, over 6.70 for the second.

Cc1nnc(CNC(=O)N[C@@]23CC[C@]4(C)C(CCC5[C@@]6(C)CC[C@H](OC(=O)CC(C)(C)C(=O)O)C(C)(C)C6CC[C@]54C)C2=C(C(C)C)C(=O)C3)o1 (stereo partly drawn) [17-65, 3β-O-(3′,3′-Dimethylsuccinyl)-17β-[N′-(2-methyl-[1,3,4]oxadiazol-2-ylmethyl)-ureido]-21-oxolup-18-ene] and CC(C)C1=C2[C@H]3CC[C@@H]4[C@@]5(C)CC[C@H](OC(=O)CC(C)(C)C(=O)O)C(C)(C)C5CC[C@@]4(C)[C@]3(C)CC[C@@]2(NC(=O)NC[C@@H]2CCCN2)CC1=O (stereo partly drawn) [17-38, 3β-O-(3′,3′-Dimethylsuccinyl)-17β-(3-(S)-1-pyrrolidin-2-ylmethyl-ureido)-21-oxolup-18-ene] cannot be ordered by pIC50: over 6.70 for the first, over 6.70 for the second.

CC(C)C1=C2C3CCC4[C@@]5(C)CC[C@H](OC(=O)CC(C)(C)C(=O)O)C(C)(C)C5CC[C@@]4(C)[C@]3(C)CC[C@@]2(NC(=O)N2CCC(F)(F)CC2)CC1=O (stereo partly drawn) [17-59, 3β-O-(3′,3′-Dimethylsuccinyl)-17β-[(4,4-difluoro-piperidine-1-carbonyl)-amino]-21-oxolup-18-ene] and Cc1ccncc1C(=O)N[C@@]12CC[C@]3(C)[C@H](CC[C@@H]4[C@@]5(C)CC[C@H](OC(=O)CC(C)(C)C(=O)O)C(C)(C)[C@@H]5CC[C@]43C)C1=C(C(C)C)C(=O)C2 [19-49, 3β-O-(3′,3′-Dimethylsuccinyl)-17β-(4-methylpyridin-3-yl)amido-21-oxolup-18-ene] cannot be ordered by pIC50: over 6.70 for the first, over 6.70 for the second.

Same assay, conditions: Human immunodeficiency virus 1, MT2 cells, without human serum, average IC50 if tested more than once, read-out: MT2 (HIVIIIB) IC50 range

First: CC(C)C1=C2[C@H]3CC[C@@H]4[C@@]5(C)CC[C@H](OC(=O)[C@H]6CCC[C@@H](C(=O)O)C6)C(C)(C)[C@@H]5CC[C@@]4(C)[C@]3(C)CC[C@@]2(NC(=O)OC(C)(C)C)CC1=O [14-2, 3β-O-(cis-Cyclohexane-3′-carboxylic acid-1′-carboxyl)-17β-[N-tert-butyloxycarbonyl-amino]-21-oxolup-18-ene]
Second: CC(C)C1=C2C3CCC4[C@@]5(C)CC[C@H](OC(=O)CC(C)(C)C(=O)O)C(C)(C)C5CC[C@@]4(C)[C@]3(C)CC[C@@]2(NC(=O)OCC2CC2)CC1=O (stereo partly drawn) [20-3, 3β-O-(3′,3′-Dimethylsuccinyl)-17β-cyclopropylmethoxycarbonylamino-21-oxolup-18-ene]
The pIC50 of the first is lower: under 6.00 for the first, over 6.70 for the second. The second is the more potent here.

CC(C)C1=C2[C@H]3CC[C@@H]4[C@@]5(C)CC[C@H](OC(=O)CC(C)(C)C(=O)O)C(C)(C)[C@@H]5CC[C@@]4(C)[C@]3(C)CC[C@@]2(N)CC1=O [15-1, 3β-O-(3′,3′-Dimethylsuccinyl)-17β-amino-21-oxolup-18-ene hydrochloride] gave a pIC50 of over 6.70.

— patent publication US8269026B2, “Lupane derivatives useful for treating HIV” (priority 2008, dated 2012)
